{"source": "patent US8772316B2", "about": "“Substituted 6,7-dialkoxy-3-isoquinolinol derivatives as inhibitors of phosphodiesterase 10 (PDE10A)” (Allergan, Inc., priority 2011, dated 2014)", "note": "Where a name gives a salt, the structure may show the parent alone.", "data": [{"target": "PDE10A", "test": "Phosphodiesterase assay (TR-FRET, LANCE cAMP kit)", "assay_type": "biochemical", "conditions": "PDE10A (BPS Bioscience) 200 pg/well, biotin-cAMP substrate, 60 min at room temperature", "method": "The PDE assay is based on the homogenous time-resolved fluorescence resonance energy transfer (TR-FRET) technology (LANCE® from Perkin Elmer). […] When there is PDE activity, resulting in the degradation of the cyclic nucleotide, the complex is not formed and a decrease in signal is observed.\nThe phosphodiesterase assay was developed using the LANCE® cAMP kit (PerkinElmer). The assay buffer contained HBSS with 5 mM HEPES, 0.1% BSA, and 1.5 mM MgCl2, pH 7.4. PDE10A (BPS Bioscience) was used at 200 pg/well (with a specific activity of 3200 pmole/min/μg with assay conditions: 10 mM Tris-HCl, pH7.4, 10 mM MgCl2, 1 mM MnCl2, 200 μM cAMP, 2.5 kU 5′ nucleotidase, 37° C., 20 min). […] Chemical compounds were dissolved in DMSO (final concentration 2% (v/v)).\nIn a 384-well plate, 2 μL inhibitor and 3 μL PDE were added to the well, followed by the addition of 5 μl substrate biotinylated cAMP (1:5). After 60 min incubation at room temperature, 10 μL of assay detection mixture was added to the assay plate. After 1 h at room temperature, the signal was measured on EnVision™ (Perkin Elmer).", "units": {"IC50": "nM"}, "values": [{"smiles": "CCCc1nc(O)c(Cc2ccc3oc4ccccc4c3c2)c2cc(OC)c(OC)cc12", "note": "[Compound 7, 4-(Dibenzo[b,d]furan-2-ylmethyl)-6,7-dimethoxy-1-propylisoquinolin-3-ol hydrochloride]", "IC50": 0.5}, {"smiles": "CCc1nc(O)c(Cc2cccc(-c3ccccc3)c2)c2cc(OC)c(OC)cc12", "note": "[Compound 8, 4-([1,1′-Biphenyl]-3-ylmethyl)-1-ethyl-6,7-dimethoxyisoquinolin-3-ol hydrochloride]", "IC50": 6710}, {"smiles": "CCc1nc(O)c(Cc2cccc(-c3ccc(OC)cc3)c2)c2cc(OC)c(OC)cc12", "note": "[Compound 9, 1-ethyl-6,7-dimethoxy-4-((4′-methoxy-[1,1′-biphenyl]-3-yl)methyl)isoquinolin-3-ol hydrochloride]", "IC50": 10600}, {"smiles": "CCc1nc(O)c(Cc2cccc(-c3cccc(N)c3)c2)c2cc(OC)c(OC)cc12", "note": "[Compound 10, 4-((3′-amino-[1,1′-biphenyl]-3-yl)methyl)-1-ethyl-6,7-dimethoxyisoquinolin-3-ol dihydrochloride]", "IC50": 52}, {"smiles": "COc1cc2c(C)nc(O)c(Cc3cccc(-c4ccccc4)n3)c2cc1OC", "note": "[Compound 12, 6,7-dimethoxy-1-methyl-4-((6-phenylpyridin-2-yl)methyl)isoquinolin-3-ol dihydrochloride]", "IC50": 94}, {"smiles": "COc1cc2c(C)nc(O)c(Cc3cccc(-c4ccncc4)n3)c2cc1OC", "note": "[Compound 14, 4-([2,4′-bipyridin]-6-ylmethyl)-6,7-dimethoxy-1-methylisoquinolin-3-ol trihydrochloride]", "IC50": 100}, {"smiles": "COc1ccc(-c2cncc(Cc3c(O)nc(C)c4cc(OC)c(OC)cc34)c2)cc1", "note": "[Compound 16, 6,7-dimethoxy-4-((5-(4-methoxyphenyl)pyridin-3-yl)methyl)-1-methylisoquinolin-3-ol dihydrochloride]", "IC50": 69}, {"smiles": "COc1cc2c(C)nc(O)c(Cc3ccc4ccccc4c3)c2cc1OC", "note": "[Compound 17, 6,7-dimethoxy-1-methyl-4-(naphthalen-2-ylmethyl)isoquinolin-3-ol hydrochloride]", "IC50": 14}, {"smiles": "COc1cc2c(C)nc(OC)c(Cc3ccc4ccccc4c3)c2cc1OC", "note": "[Compound 18, 3,6,7-trimethoxy-1-methyl-4-(naphthalen-2-ylmethyl)isoquinoline hydrochloride]", "IC50": 1410}, {"smiles": "CCCc1nc(O)c(Cc2ccc3ccccc3c2)c2cc(OC)c(OC)cc12", "note": "[Compound 20, 6,7-dimethoxy-4-(naphthalen-2-ylmethyl)-1-propylisoquinolin-3-ol hydrochloride]", "IC50": 34}, {"smiles": "COc1cc2c(C)nc(O)c(Cc3ccc4ccccc4n3)c2cc1OC", "note": "[Compound 23, 6,7-dimethoxy-1-methyl-4-(quinolin-2-ylmethyl)isoquinolin-3-ol dihydrochloride]", "IC50": 130}, {"smiles": "COc1cc2c(C)nc(O)c(Cc3ccc4ncccc4c3)c2cc1OC", "note": "[Compound 24, 6,7-dimethoxy-1-methyl-4-(quinolin-6-ylmethyl)isoquinolin-3-ol dihydrochloride]", "IC50": 86}, {"smiles": "COc1cc2c(C)nc(O)c(Cc3cnc4ccccc4c3)c2cc1OC", "note": "[Compound 26, 6,7-Dimethoxy-1-methyl-4-(quinolin-3-ylmethyl)isoquinolin-3-ol dihydrochloride]", "IC50": 24}, {"smiles": "COc1cc2c(C)nc(O)c(Cc3cnc4cccc(OC)c4c3)c2cc1OC", "note": "[Compound 27, 6,7-Dimethoxy-4-((5-methoxyquinolin-3-yl)methyl)-1-methylisoquinolin-3-ol dihydrochloride]", "IC50": 17}, {"smiles": "CCOc1cccc2ncc(Cc3c(O)nc(C)c4cc(OC)c(OC)cc34)cc12", "note": "[Compound 28, 4-((5-Ethoxyquinolin-3-yl)methyl)-6,7-dimethoxy-1-methylisoquinolin-3-ol dihydrochloride]", "IC50": 6}, {"smiles": "CCCc1nc(O)c(Cc2cnc3cc(OC)ccc3c2)c2cc(OC)c(OC)cc12", "note": "[Compound 32, 6,7-dimethoxy-4-((7-methoxyquinolin-3-yl)methyl)-1-propylisoquinolin-3-ol dihydrochloride]", "IC50": 4}, {"smiles": "CNc1nc2ccc(C)cc2cc1Cc1c(O)nc(C)c2cc(OC)c(OC)cc12", "note": "[Compound 33, 6,7-Dimethoxy-1-methyl-4-((6-methyl-2-(methylamino)quinolin-3-yl)methyl)isoquinolin-3-ol dihydrochloride]", "IC50": 13}, {"smiles": "CCCc1nc(O)c(Cc2cc3cc(C)ccc3nc2NC)c2cc(OC)c(OC)cc12", "note": "[Compound 34, 6,7-dimethoxy-4-((6-methyl-2-(methylamino)quinolin-3-yl)methyl)-1-propylisoquinolin-3-ol dihydrochloride]", "IC50": 1.9}, {"smiles": "CNc1nc2ccc(OC)cc2cc1Cc1c(O)nc(C)c2cc(OC)c(OC)cc12", "note": "[Compound 37, 6,7-Dimethoxy-4-((6-methoxy-2-(methylamino)quinolin-3-yl)methyl)-1-methyl-isoquinolin-3-ol dihydrochloride]", "IC50": 6}, {"smiles": "CCc1nc(O)c(Cc2cc3cc(OC)ccc3nc2NC)c2cc(OC)c(OC)cc12", "note": "[Compound 39, 1-ethyl-6,7-dimethoxy-4-((6-methoxy-2-(methylamino)quinolin-3-yl)methyl)isoquinolin-3-ol dihydrochloride]", "IC50": 1.6}, {"smiles": "CCNc1nc2ccc(OC)cc2cc1Cc1c(O)nc(CC)c2cc(OC)c(OC)cc12", "note": "[Compound 40, 1-Ethyl-6,7-dimethoxy-4-((6-methoxy-2-(ethylamino)quinolin-3-yl)methyl)isoquinolin-3-ol dihydrochloride]", "IC50": 0.4}, {"smiles": "CCNc1nc2ccc(OCC)cc2cc1Cc1c(O)nc(CC)c2cc(OC)c(OC)cc12", "note": "[Compound 41, 4-((6-Ethoxy-2-(ethylamino)quinolin-3-yl)methyl)-1-ethyl-6,7-dimethoxyisoquinolin-3-ol dihydrochloride]", "IC50": 5}, {"smiles": "CCCNc1nc2ccc(OC)cc2cc1Cc1c(O)nc(CC)c2cc(OC)c(OC)cc12", "note": "[Compound 42, 1-ethyl-6,7-dimethoxy-4-((6-methoxy-2-(propylamino)quinolin-3-yl)methyl)isoquinolin-3-ol dihydrochloride]", "IC50": 0.5}, {"smiles": "CCc1nc(O)c(Cc2cc3cc(OC)ccc3nc2NCc2ccccc2)c2cc(OC)c(OC)cc12", "note": "[Compound 44, 4-((2-(Benzylamino)-6-methoxyquinolin-3-yl)methyl)-1-ethyl-6,7-dimethoxyisoquinolin-3-ol dihydrochloride]", "IC50": 8}, {"smiles": "CCNc1nc2ccc(OCC)cc2cc1Cc1c(O)nc(C(C)C)c2cc(OC)c(OC)cc12", "note": "[Compound 46, 4-((6-Ethoxy-2-(ethylamino)quinolin-3-yl)methyl)-1-isopropyl-6,7-dimethoxyisoquinolin-3-ol dihydrochloride]", "IC50": 29}, {"smiles": "CCCc1nc(O)c(Cc2cc3cc(OC)ccc3nc2NC(C)C)c2cc(OC)c(OC)cc12", "note": "[Compound 53, 4-((2-(Isopropylamino)-6-methoxyquinolin-3-yl)methyl)-6,7-dimethoxy-1-propylisoquinolin-3-ol dihydrochloride]", "IC50": 0.8}, {"smiles": "CCCc1nc(O)c(Cc2cc3cc(OC)ccc3nc2NCC(F)(F)F)c2cc(OC)c(OC)cc12", "note": "[Compound 54, 6,7-dimethoxy-4-((6-methoxy-2-((2,2,2-trifluoroethyl)amino)quinolin-3-yl)methyl)-1-propylisoquinolin-3-ol dihydrochloride]", "IC50": 23}, {"smiles": "CCCc1nc(O)c(Cc2cc3cc(OC)ccc3nc2NCCNC(C)=O)c2cc(OC)c(OC)cc12", "note": "[Compound 55, N-(2-((3-((3-hydroxy-6,7-dimethoxy-1-propylisoquinolin-4-yl)methyl)-6-methoxyquinolin-2-yl)amino)ethyl)acetamide dihydrochloride]", "IC50": 4.4}, {"smiles": "CCNc1nc2ccc(OC)cc2cc1Cc1c(OC(C)=O)nc(CNC(C)=O)c2cc(OC)c(OC)cc12", "note": "[Compound 56, 1-(Acetamidomethyl)-4-((2-(ethylamino)-6-methoxyquinolin-3-yl)methyl)-6,7-dimethoxyisoquinolin-3-yl acetate]", "IC50": 175}, {"smiles": "CCNc1nc2ccc(OC)cc2cc1Cc1c(O)nc(CNC(C)=O)c2cc(OC)c(OC)cc12", "note": "[Compound 57, N-((4-((2-(ethylamino)-6-methoxyquinolin-3-yl)methyl)-3-hydroxy-6,7-dimethoxyisoquinolin-1-yl)methyl)acetamide dihydrochloride]", "IC50": 47}, {"smiles": "CNc1nc2cc(O)c(O)cc2cc1Cc1c(O)nc(C)c2cc(OC)c(OC)cc12", "note": "[Compound 59, 3-((3-hydroxy-6,7-dimethoxy-1-methylisoquinolin-4-yl)methyl)-2-(methylamino)quinoline-6,7-diol dihydrochloride]", "IC50": 27}, {"smiles": "CNc1nc2cc3c(cc2cc1Cc1c(O)nc(C)c2cc(OC)c(OC)cc12)OCO3", "note": "[Compound 60, 6,7-dimethoxy-1-methyl-4-((6-(methylamino)-[1,3]dioxolo[4,5-g]quinolin-7-yl)methyl)isoquinolin-3-ol dihydrochloride]", "IC50": 2.7}, {"smiles": "CCc1nc(O)c(Cc2cc3cc4c(cc3nc2NC)OCO4)c2cc(OC)c(OC)cc12", "note": "[Compound 61, 1-ethyl-6,7-dimethoxy-4-((6-(methylamino)-[1,3]-dioxolo[4,5-g]quinolin-7-yl)methyl)isoquinolin-3-ol dihydrochloride]", "IC50": 2.2}, {"smiles": "CCCc1nc(O)c(Cc2cc3cc4c(cc3nc2NC)OCO4)c2cc(OC)c(OC)cc12", "note": "[Compound 62, 6,7-dimethoxy-4-((6-(methylamino)-[1,3]-dioxolo[4,5-g]quinolin-7-yl)methyl)-1-propylisoquinolin-3-ol dihydrochloride]", "IC50": 1.1}]}]}
